# Measurements: ChEMBL document CHEMBL6114965, “Novel dual-targeting PROTAC degraders of GSK-3β and CDK5: A promising approach for pancreatic cancer treatment” (Bioorg Med Chem, 2025)
# Calls of active or inactive are those of the source. No cut-off for these calls is given here.
# Columns and labels:
# [1] = Tmax in mouse at 5 mg/kg, iv; assay type: ADME, organism-based; conditions: in vivo
# [2] = molecular target: Cytochrome P450 2C9 (Homo sapiens, UniProt P11712); test: Inhibition of CYP2C9 (unknown origin) using diclofenac as substrate […]; assay type: ADME
# Chain of Cytochrome P450 2C9 (P11712 whole entry): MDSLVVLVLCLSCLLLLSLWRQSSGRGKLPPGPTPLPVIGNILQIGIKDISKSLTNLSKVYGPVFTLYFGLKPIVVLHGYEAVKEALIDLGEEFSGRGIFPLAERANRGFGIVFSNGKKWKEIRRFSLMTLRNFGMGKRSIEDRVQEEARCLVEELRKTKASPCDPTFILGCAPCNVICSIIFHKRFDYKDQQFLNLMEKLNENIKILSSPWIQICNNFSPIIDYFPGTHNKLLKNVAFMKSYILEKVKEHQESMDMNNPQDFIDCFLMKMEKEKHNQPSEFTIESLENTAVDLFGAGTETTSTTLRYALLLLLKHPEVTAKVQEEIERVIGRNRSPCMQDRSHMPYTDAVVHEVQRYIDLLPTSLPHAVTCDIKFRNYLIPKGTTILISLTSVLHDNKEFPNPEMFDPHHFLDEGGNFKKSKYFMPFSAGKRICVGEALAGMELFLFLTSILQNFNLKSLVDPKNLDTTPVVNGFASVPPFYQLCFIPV
# [3] = molecular target: T1, Protein cereblon/Cyclin-dependent kinase 5 (Homo sapiens, UniProt Q00535+Q96SW2); test: PROTAC activity at CRBN/CDK5 in human PANC-1 cells assessed as induction of CDK5 degradation by target engagement binding based cell-ELISA
# Target sequence in this assay (Q00535 whole entry): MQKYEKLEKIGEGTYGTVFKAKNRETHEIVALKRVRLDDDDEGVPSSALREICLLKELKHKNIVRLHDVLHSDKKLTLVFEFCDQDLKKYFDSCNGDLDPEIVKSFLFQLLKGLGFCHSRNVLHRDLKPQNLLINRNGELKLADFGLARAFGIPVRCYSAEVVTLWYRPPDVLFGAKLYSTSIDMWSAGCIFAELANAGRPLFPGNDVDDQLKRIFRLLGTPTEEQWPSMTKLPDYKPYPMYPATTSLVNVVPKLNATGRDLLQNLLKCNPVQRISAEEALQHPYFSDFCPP
# Target sequence in this assay (Q96SW2 whole entry): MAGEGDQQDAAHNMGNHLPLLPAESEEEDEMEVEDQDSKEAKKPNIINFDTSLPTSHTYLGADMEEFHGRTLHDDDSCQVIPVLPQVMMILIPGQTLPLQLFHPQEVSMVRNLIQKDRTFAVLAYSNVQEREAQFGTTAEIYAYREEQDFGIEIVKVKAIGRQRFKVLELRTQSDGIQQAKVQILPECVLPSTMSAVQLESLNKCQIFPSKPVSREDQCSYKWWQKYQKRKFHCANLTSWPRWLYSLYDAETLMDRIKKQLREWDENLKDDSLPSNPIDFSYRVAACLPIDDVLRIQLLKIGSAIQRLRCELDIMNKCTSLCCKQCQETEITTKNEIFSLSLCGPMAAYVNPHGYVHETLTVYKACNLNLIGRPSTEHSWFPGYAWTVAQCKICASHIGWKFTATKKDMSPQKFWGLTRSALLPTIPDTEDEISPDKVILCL
# [4] = molecular target: T2, Protein cereblon/Glycogen synthase kinase-3 beta (Homo sapiens, UniProt P49841+Q96SW2); test: PROTAC activity at CRBN/GSK3beta in human PANC-1 cells assessed as induction of GSK3beta degradation at 0.5 to 2.8 uM incubated for 10 hrs in presence of MG132 by Western blot analysis; assay type: cell-based; conditions: dose 0.5-2.8 µM
# Target sequence in this assay (P49841 whole entry, looked up): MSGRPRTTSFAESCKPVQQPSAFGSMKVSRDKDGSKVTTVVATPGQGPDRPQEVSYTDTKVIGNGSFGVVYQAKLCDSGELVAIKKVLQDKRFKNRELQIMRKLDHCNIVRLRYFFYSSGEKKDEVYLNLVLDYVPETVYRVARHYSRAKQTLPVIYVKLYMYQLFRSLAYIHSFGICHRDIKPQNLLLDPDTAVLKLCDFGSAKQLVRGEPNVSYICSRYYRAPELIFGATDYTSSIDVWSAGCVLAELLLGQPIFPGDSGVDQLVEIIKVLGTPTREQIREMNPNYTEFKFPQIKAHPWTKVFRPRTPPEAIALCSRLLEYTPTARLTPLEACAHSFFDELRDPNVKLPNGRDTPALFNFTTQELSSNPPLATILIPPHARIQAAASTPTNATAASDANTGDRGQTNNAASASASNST
# Target sequence in this assay (Q96SW2 whole entry, looked up): as the sequence (Q96SW2 whole entry) above
# [5] = test system: BXPC-3; test: Antiproliferative activity against human BXPC-3 cells assessed as inhibition of cell viability by MTT assay; assay type: functional, cell-based
# [6] = Metabolic stability in pooled human liver microsomes assessed as half-life at 100 uM measured upto 120 mins by LC-MS/MS analysis; assay type: ADME, Microsome
# [7] = Cmax in mouse at 5 mg/kg, iv; assay type: ADME, organism-based; conditions: in vivo
# [8] = molecular target: T2, Protein cereblon/Glycogen synthase kinase-3 beta; test: PROTAC activity at CRBN/GSK3beta in human PANC-1 cells assessed as induction of GSK3beta degradation by measuring maximal efficacy by target engagement binding based cell-ELISA relative to control
# Target sequence in this assay (P49841 whole entry, looked up): as the sequence (P49841 whole entry, looked up) above
# Target sequence in this assay (Q96SW2 whole entry, looked up): as the sequence (Q96SW2 whole entry) above
# [9] = Observed clearance in mouse at 5 mg/kg, po; assay type: ADME, organism-based; conditions: in vivo
# [10] = molecular target: Cytochrome P450 2D6 (Homo sapiens, UniProt P10635); test: Inhibition of CYP2D6 (unknown origin) using dextromethorphan as substrate […]; assay type: ADME
# Chain of Cytochrome P450 2D6 (P10635 whole entry): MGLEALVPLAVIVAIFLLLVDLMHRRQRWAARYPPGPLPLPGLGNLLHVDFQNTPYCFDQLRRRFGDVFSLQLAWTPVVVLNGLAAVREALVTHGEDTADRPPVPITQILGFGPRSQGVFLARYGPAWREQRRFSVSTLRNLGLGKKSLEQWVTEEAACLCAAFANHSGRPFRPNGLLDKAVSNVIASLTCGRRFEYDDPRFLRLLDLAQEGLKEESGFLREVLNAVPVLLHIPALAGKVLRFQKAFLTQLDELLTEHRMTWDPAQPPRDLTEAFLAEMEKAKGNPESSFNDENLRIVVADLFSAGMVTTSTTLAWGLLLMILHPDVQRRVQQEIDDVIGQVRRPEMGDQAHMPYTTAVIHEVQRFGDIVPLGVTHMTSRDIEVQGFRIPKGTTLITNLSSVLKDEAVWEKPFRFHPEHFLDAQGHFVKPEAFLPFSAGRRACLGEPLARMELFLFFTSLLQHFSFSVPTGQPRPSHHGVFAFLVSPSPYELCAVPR
# [11] = test system: MIA PaCa-2; test: Antiproliferative activity against human MIA PaCa-2 cells assessed as inhibition of cell viability by MTT assay; assay type: functional, cell-based
# [12] = Cytotoxicity against human A549 cells; assay type: toxicity, cell-based
# [13] = molecular target: T3, Cytochrome P450 3A4 (Homo sapiens, UniProt P08684); test: Inhibition of CYP3A4 (unknown origin) using midazolam as substrate […]; assay type: ADME
# T3 sequence (P08684 whole entry): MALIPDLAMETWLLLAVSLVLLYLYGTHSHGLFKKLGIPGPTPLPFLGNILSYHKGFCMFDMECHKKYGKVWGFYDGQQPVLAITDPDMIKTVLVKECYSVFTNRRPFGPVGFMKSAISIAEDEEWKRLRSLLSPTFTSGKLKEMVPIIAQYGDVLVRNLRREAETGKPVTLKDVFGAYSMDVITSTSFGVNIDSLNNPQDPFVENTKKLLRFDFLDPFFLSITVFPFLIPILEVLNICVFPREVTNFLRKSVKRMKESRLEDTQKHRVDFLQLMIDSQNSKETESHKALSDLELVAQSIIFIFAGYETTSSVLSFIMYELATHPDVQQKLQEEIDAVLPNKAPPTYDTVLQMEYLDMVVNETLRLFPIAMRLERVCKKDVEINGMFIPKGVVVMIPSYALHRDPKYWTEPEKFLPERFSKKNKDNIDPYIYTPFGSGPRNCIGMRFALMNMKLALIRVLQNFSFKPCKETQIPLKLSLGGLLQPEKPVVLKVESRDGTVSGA
# [14] = molecular target: T1, Protein cereblon/Cyclin-dependent kinase 5; test: PROTAC activity at CRBN/CDK5 in human PANC-1 cells assessed as induction of CDK5 degradation at 0.5 to 2.8 uM incubated for 10 hrs in presence of MG132 by Western blot analysis; assay type: cell-based; conditions: dose 0.5-2.8 µM
# Target sequence in this assay (Q00535 whole entry, looked up): as the sequence (Q00535 whole entry) above
# Target sequence in this assay (Q96SW2 whole entry, looked up): as the sequence (Q96SW2 whole entry) above
# [15] = molecular target: T2, Protein cereblon/Glycogen synthase kinase-3 beta; test: PROTAC activity at CRBN/GSK3beta in human PANC-1 cells assessed as induction of GSK3beta degradation at 1 to 2.8 uM incubated for 10 hrs by Western blot analysis; assay type: cell-based; conditions: dose 1-2.8 µM
# Target sequence in this assay (P49841 whole entry, looked up): as the sequence (P49841 whole entry, looked up) above
# Target sequence in this assay (Q96SW2 whole entry, looked up): as the sequence (Q96SW2 whole entry) above
# [16] = test system: PANC-1; test: Antiproliferative activity against human PANC-1 cells assessed as inhibition of cell viability by MTT assay; assay type: functional, cell-based
# [17] = molecular target: T1, Protein cereblon/Cyclin-dependent kinase 5; test: PROTAC activity at CRBN/CDK5 in human PANC-1 cells assessed as induction of CDK5 degradation by measuring maximal efficacy by target engagement binding based cell-ELISA relative to control
# Target sequence in this assay (Q00535 whole entry, looked up): as the sequence (Q00535 whole entry) above
# Target sequence in this assay (Q96SW2 whole entry, looked up): as the sequence (Q96SW2 whole entry) above
# [18] = molecular target: T4, Cytochrome P450 1A2 (Homo sapiens, UniProt P05177); test: Inhibition of CYP1A2 (unknown origin) using phenacetin as substrate […]; assay type: ADME
# T4 sequence (P05177 whole entry): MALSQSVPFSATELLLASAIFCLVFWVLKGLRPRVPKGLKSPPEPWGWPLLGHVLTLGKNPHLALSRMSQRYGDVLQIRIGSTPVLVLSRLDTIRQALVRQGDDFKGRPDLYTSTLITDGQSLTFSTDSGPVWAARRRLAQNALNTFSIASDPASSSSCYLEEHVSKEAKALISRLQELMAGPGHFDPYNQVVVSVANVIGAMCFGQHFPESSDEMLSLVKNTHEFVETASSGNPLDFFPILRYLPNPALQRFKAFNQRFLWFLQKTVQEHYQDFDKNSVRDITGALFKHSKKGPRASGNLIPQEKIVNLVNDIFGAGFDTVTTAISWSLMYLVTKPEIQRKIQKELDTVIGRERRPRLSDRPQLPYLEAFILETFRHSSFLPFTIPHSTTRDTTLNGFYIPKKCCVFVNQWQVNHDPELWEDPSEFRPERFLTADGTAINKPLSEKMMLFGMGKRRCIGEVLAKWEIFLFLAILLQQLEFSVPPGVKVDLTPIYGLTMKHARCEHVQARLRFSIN
# [19] = Bioavailability in mouse at 5 mg/kg, […]; assay type: ADME, organism-based; conditions: in vivo
# [20] = Cytotoxicity against human HepG2 cells; assay type: toxicity, cell-based
# [21] = molecular target: T2, Protein cereblon/Glycogen synthase kinase-3 beta; test: PROTAC activity at CRBN/GSK3beta in human PANC-1 cells assessed as induction of GSK3beta degradation by target engagement binding based cell-ELISA
# Target sequence in this assay (P49841 whole entry): as the sequence (P49841 whole entry, looked up) above
# Target sequence in this assay (Q96SW2 whole entry): as the sequence (Q96SW2 whole entry) above
# [22] = molecular target: T5, Cytochrome P450 2C8 (Homo sapiens, UniProt P10632); test: Inhibition of CYP2C8 (unknown origin) using amodiaquine as substrate […]; assay type: ADME
# T5 sequence (P10632 whole entry): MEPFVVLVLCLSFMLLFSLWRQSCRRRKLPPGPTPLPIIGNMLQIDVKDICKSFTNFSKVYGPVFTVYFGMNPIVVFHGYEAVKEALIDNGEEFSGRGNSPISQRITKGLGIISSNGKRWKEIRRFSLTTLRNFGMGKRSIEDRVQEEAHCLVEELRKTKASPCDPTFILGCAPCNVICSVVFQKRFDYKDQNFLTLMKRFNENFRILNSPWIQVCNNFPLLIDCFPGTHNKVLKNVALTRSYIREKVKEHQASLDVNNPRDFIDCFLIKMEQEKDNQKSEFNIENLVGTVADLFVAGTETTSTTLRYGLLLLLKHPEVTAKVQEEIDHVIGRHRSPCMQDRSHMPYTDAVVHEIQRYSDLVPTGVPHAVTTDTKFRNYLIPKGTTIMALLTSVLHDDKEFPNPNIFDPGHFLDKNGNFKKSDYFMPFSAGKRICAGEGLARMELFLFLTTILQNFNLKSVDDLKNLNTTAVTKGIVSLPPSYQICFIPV
# [23] = AUC in mouse at 5 mg/kg, po; assay type: ADME, organism-based; conditions: in vivo
# [24] = Permeability of compound in PBS at pH 7.4 at 500 uM incubated for 4 hrs by UV spectrophotometry based PAMPA; assay type: ADME; conditions: read-out: permeability
# [25] = test system: ASPC1; test: Antiproliferative activity against human ASPC1 cells assessed as inhibition of cell viability by MTT assay; assay type: functional, cell-based
# [26] = molecular target: T1, Protein cereblon/Cyclin-dependent kinase 5; test: PROTAC activity at CRBN/CDK5 in human PANC-1 cells assessed as induction of CDK5 degradation at 1 to 2.8 uM incubated for 10 hrs by Western blot analysis; assay type: cell-based; conditions: dose 1-2.8 µM
# Target sequence in this assay (Q00535 whole entry, looked up): as the sequence (Q00535 whole entry) above
# Target sequence in this assay (Q96SW2 whole entry, looked up): as the sequence (Q96SW2 whole entry) above
# [27] = Tmax in mouse at 5 mg/kg, po; assay type: ADME, organism-based; conditions: in vivo
# [28] = molecular target: T6, Cytochrome P450 2B6 (Homo sapiens, UniProt P20813); test: Inhibition of CYP2B6 (unknown origin) using bupropion as substrate […]; assay type: ADME
# T6 sequence (P20813 whole entry): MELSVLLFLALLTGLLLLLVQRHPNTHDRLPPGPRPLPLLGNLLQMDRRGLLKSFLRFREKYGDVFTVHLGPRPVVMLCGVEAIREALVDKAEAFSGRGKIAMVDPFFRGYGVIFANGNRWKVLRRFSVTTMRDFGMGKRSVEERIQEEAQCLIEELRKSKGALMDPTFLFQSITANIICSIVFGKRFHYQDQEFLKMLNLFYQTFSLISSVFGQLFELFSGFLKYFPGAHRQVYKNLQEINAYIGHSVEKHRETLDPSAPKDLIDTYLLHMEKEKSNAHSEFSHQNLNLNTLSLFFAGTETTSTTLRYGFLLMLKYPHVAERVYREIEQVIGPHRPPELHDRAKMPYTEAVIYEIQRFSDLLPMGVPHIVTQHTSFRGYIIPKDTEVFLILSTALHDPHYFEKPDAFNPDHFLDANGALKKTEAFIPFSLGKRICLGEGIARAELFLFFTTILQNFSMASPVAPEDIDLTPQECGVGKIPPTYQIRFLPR
# [29] = AUC in mouse at 5 mg/kg, iv; assay type: ADME, organism-based; conditions: in vivo
# [30] = Oral bioavailability in mouse at 5 mg/kg; assay type: ADME, organism-based; conditions: in vivo
# [31] = Cmax in mouse at 5 mg/kg, po; assay type: ADME, organism-based; conditions: in vivo
# [32] = molecular target: Cytochrome P450 2C19 (Homo sapiens, UniProt P33261); test: Inhibition of CYP2C19 (unknown origin) using s-mephenytoin as substrate […]; assay type: ADME
# Chain of Cytochrome P450 2C19 (P33261 whole entry): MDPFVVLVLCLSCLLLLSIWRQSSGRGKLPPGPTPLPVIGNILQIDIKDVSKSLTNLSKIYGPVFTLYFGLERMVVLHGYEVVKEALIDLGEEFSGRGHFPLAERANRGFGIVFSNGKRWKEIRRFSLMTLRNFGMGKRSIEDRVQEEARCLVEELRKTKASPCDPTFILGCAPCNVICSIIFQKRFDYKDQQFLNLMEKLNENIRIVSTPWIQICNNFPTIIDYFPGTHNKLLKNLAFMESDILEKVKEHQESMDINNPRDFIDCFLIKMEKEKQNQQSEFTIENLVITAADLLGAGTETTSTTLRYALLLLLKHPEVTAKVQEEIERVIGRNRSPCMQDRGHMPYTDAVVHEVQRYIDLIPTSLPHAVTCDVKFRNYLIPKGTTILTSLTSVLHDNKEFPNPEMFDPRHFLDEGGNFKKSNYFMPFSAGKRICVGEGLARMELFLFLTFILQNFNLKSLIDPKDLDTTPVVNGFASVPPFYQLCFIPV
# [33] = Half-life in mouse at 5 mg/kg, iv; assay type: ADME, organism-based; conditions: in vivo
# [34] = molecular target: T3, Cytochrome P450 3A4; test: Inhibition of CYP3A4 (unknown origin) using testosterone as substrate […]; assay type: ADME
# [35] = Half-life in mouse at 5 mg/kg, po; assay type: ADME, organism-based; conditions: in vivo
smiles,measurement,setting,value
O=C1CCC(N2C(=O)c3cccc(NCCCCCn4cc(CN5CCN(CCCn6cc(C7=C(c8c[nH]c9ccccc89)C(=O)NC7=O)c7ccccc76)CC5)nn4)c3C2=O)C(=O)N1 (stereo not given),Tmax,[1],4 h
same,IC50,[2],33.3 µM
same,DC50,[3],0.048 µM
same,Activity,[4],inactive
same,IC50,[5],2.95 µM
same,half-life at 100 µM,[6],0.934 h
same,Cmax,[7],961 ng/mL
same,Emax,[8],90%
same,CL/F,[9],90 mL/min/kg
same,IC50,[10],45.5 µM
same,IC50,[11],2.16 µM
same,CC50,[12],8.23 µM
same,IC50,[13],39.2 µM
same,Activity,[14],inactive
same,Activity,[15],Active
same,IC50,[16],1.81 µM
same,Emax,[17],88%
same,IC50,[18],55.2 µM
same,bioavailability,[19],35%
same,CC50,[20],9.05 µM
same,DC50,[21],0.042 µM
same,IC50,[22],> 100 µM
same,AUC,[23],1550 ng·h/mL
same,"Papp at 4 h, 500 µM",[24],79.9 ×10⁻⁶ cm/s
same,IC50,[25],1.96 µM
same,Activity,[26],Active
same,Tmax,[27],2 h
same,IC50,[28],45.3 µM
same,AUC,[29],3700 ng·h/mL
same,F,[30],15%
same,Cmax,[31],761 ng/mL
same,IC50,[32],46.2 µM
same,half-life,[33],6 h
same,IC50,[34],25.3 µM
same,half-life,[35],4 h
